Common to all, as to format: cell-based
For one assay, the system named is E. coli ATCC25922. The assay can be described thus: Salt, serum, acid and alkaline sensitivity. The note with it: for MIC, Control: absence of physiological salts, serum, acid and alkaline; for MIC, FeCl3: in presence of 4μM FeCl3 (final); for MIC, MgCl2: in presence of 1 mM MgCl2; for MIC, KCl: in presence of 4.5 mM KCl (final); for MIC, NaCl: in presence of 150 mM NaCl (final); for MIC, PH=2: peptide incubated at pH=2 for 4 h prior to MIC determination; for MIC, PH=4: peptide incubated at pH=4 for 4 h prior to MIC determination; for MIC, PH=10: peptide incubated at pH=10 for 4 h prior to MIC determination; for MIC, PH=12: peptide incubated at pH=12 for 4 h prior to MIC determination.

For a further assay, the system named is Beneficial strains. The assay can be described thus: Geometric mean of MICs. The note with it: geometric mean of MICs against beneficial strains; >128 counted as 256 μM.
A further assay relates to E. coli. Kind of assay: Geometric mean of MICs, selectivity and targeting indices. The note with it: for TI Beneficial strains (targeting index): GM(E. coli)/GM(beneficial strains); for TI Beneficial strains (targeting index) / TI Pathogenic strains (targeting index): smaller = greater specificity; for TI Pathogenic strains (targeting index): GM(E. coli)/GM(other pathogenic strains); for SI E. coli (selectivity index): MHC/GM (E. coli), MHC >128 counted as 256 μM, larger = greater cell selectivity; for TI All (TIall, targeting index): all strains, smaller = greater specificity for E. coli; for GM E. coli: geometric mean of MICs against the 6 E. coli strains, >128 counted as 256 μM.

The results in this text go back to publication doi:10.1101/679977v1 (bioRxiv, 2019).

Square brackets hold non-standard residues; d marks the D form. Ends that are not written are not given here. Peptide text beside a SMILES is read from it.

As for `CC[C@H](C)[C@H](NC(=O)CNC(=O)[C@H]1CCCN1C(=O)[C@H](CCCCN)NC(=O)[C@H](Cc1c[nH]c2ccccc12)NC(=O)[C@@H](NC(=O)[C@H](CCCCN)NC(=O)[C@H](CCCCN)NC(=O)[C@@H](N)Cc1c[nH]c2ccccc12)[C@@H](C)CC)C(=O)N[C@@H](CCCCN)C(=O)N[C@@H](CCCCN)C(=O)N[C@@H](Cc1c[nH]c2ccccc12)C(=O)N[C@H](C(=O)N[C@@H](CCCCN)C(=O)NCC(=O)NCC(=O)NCC(=O)N[C@@H](CCCCN)C(=O)N[C@@H](CCCCN)C(=O)O)[C@@H](C)CC` [Peptide 6] (H-WKKIWK[dP]GIKKWIKGGGKK-OH; N-terminus and C-terminus assumed), in the assay on E. coli ATCC25922, the “MIC, Control” value came out at 8 µM; the “MIC, FeCl3” value worked out at 8 µM; the “MIC, MgCl2” value is 32 µM; the “MIC, KCl” value turned out to be 8 µM. In addition, in the assay with E. coli ATCC25922, the “MIC, NaCl” value is above 64 µM; the “MIC, PH=2” value is 32 µM; the “MIC, PH=4” value was 16 µM; the “MIC, PH=10” value worked out at 16 µM. Also, the “MIC, PH=12” value in the assay on E. coli ATCC25922 worked out at 16 µM. Further, in the assay on Beneficial strains, the “GM Beneficial strains” value is 256.000 µM. Besides, in the assay with E. coli, the “TI Beneficial strains (targeting index)” value is listed as 0.050; the “TI Pathogenic strains (targeting index)” value came to 0.056; the “SI E. coli (selectivity index)” value is recorded as 20.159; the “TI All (TIall, targeting index)” value turned out to be 0.053. Moreover, in the assay with E. coli, the “GM E. coli” value was 12.699 µM.
“QKRPRVRLSA [Peptide 14, reference compound]”: in the assay with E. coli ATCC25922, the “MIC, Control” value is 64 µM; the “MIC, FeCl3” value was above 64 µM; the “MIC, MgCl2” value was above 64 µM; the “MIC, KCl” value is above 64 µM. Moreover, in the assay on E. coli ATCC25922, the “MIC, NaCl” value is above 64 µM; the “MIC, PH=2” value came to 64 µM; the “MIC, PH=4” value is above 64 µM; the “MIC, PH=10” value is above 64 µM. Further, the “MIC, PH=12” value with E. coli ATCC25922 amounted to 64 µM. Also, the “GM Beneficial strains” value in the assay on Beneficial strains was determined as 256.000 µM. Also, in the assay on E. coli, the “TI Beneficial strains (targeting index)” value is listed as 0.397; the “TI Pathogenic strains (targeting index)” value is 0.397; the “SI E. coli (selectivity index)” value was 2.520; the “TI All (TIall, targeting index)” value was found to be 0.397. Besides, the “GM E. coli” value in the assay on E. coli is 101.594 µM.
For `CC[C@H](C)[C@H](NC(=O)CNC(=O)[C@H]1CCCN1C(=O)[C@H](CCCCN)NC(=O)[C@H](Cc1c[nH]c2ccccc12)NC(=O)[C@@H](NC(=O)[C@H](CCCCN)NC(=O)[C@H](CCCCN)NC(=O)[C@H](Cc1c[nH]c2ccccc12)NC(=O)[C@@H](NC(=O)[C@@H](N)CCCCN)[C@@H](C)CC)[C@@H](C)CC)C(=O)N[C@@H](CCCCN)C(=O)N[C@@H](CCCCN)C(=O)N[C@@H](Cc1c[nH]c2ccccc12)C(=O)N[C@H](C(=O)N[C@@H](CCCCN)C(=O)N[C@@H](CCCCN)C(=O)N[C@@H](Cc1c[nH]c2ccccc12)C(=O)O)[C@@H](C)CC` [Peptide 3] (H-KIWKKIWK[dP]GIKKWIKKW-OH; N-terminus and C-terminus assumed), in the assay with E. coli ATCC25922, the “MIC, Control” value was found to be 4 µM; the “MIC, FeCl3” value was 4 µM; the “MIC, MgCl2” value was 8 µM; the “MIC, KCl” value stood at 4 µM. In the assay on E. coli ATCC25922, the “MIC, NaCl” value was 16 µM; the “MIC, PH=2” value amounted to 4 µM; the “MIC, PH=4” value was determined as 4 µM; the “MIC, PH=10” value was determined as 4 µM. The “MIC, PH=12” value in the assay with E. coli ATCC25922 turned out to be 4 µM. In addition, the “GM Beneficial strains” value in the assay with Beneficial strains is 256.000 µM. Moreover, in the assay on E. coli, the “TI Beneficial strains (targeting index)” value amounted to 0.011, the “TI Pathogenic strains (targeting index)” value worked out at 0.079, the “SI E. coli (selectivity index)” value is 90.523 and the “GM E. coli” value came out at 2.828 µM.
Consider `CC[C@H](C)[C@H](NC(=O)CNC(=O)[C@H]1CCCN1C(=O)[C@H](CCCCN)NC(=O)[C@H](Cc1c[nH]c2ccccc12)NC(=O)[C@@H](NC(=O)[C@@H](N)CCCCN)[C@@H](C)CC)C(=O)N[C@@H](CCCCN)C(=O)N[C@@H](CCCCN)C(=O)N[C@@H](Cc1c[nH]c2ccccc12)C(=O)O` [Peptide 1] (H-KIWK[dP]GIKKW-OH; N-terminus and C-terminus assumed), for which, in the assay on E. coli ATCC25922, the “MIC, Control” value was above 64 µM; the “MIC, FeCl3” value is above 64 µM; the “MIC, MgCl2” value was above 64 µM; the “MIC, KCl” value is above 64 µM. Also, in the assay on E. coli ATCC25922, the “MIC, NaCl” value is above 64 µM; the “MIC, PH=2” value is above 64 µM; the “MIC, PH=4” value was above 64 µM; the “MIC, PH=10” value was above 64 µM. Moreover, the “MIC, PH=12” value in the assay with E. coli ATCC25922 is above 64 µM. Also, the “GM Beneficial strains” value in the assay with Beneficial strains turned out to be 256.000 µM. Also, in the assay on E. coli, the “TI Beneficial strains (targeting index)” value turned out to be 1.000; the “TI Pathogenic strains (targeting index)” value is 1.000; the “SI E. coli (selectivity index)” value amounted to 1.000; the “TI All (TIall, targeting index)” value was found to be 1.000. Further, the “GM E. coli” value in the assay on E. coli came to 256.000 µM.
Take `CC[C@H](C)[C@H](NC(=O)CNC(=O)[C@H]1CCCN1C(=O)[C@H](CCCCN)NC(=O)[C@H](Cc1c[nH]c2ccccc12)NC(=O)[C@@H](NC(=O)[C@H](CCCCN)NC(=O)[C@@H](NC(=O)[C@@H](N)Cc1c[nH]c2ccccc12)[C@@H](C)CC)[C@@H](C)CC)C(=O)N[C@@H](CCCCN)C(=O)N[C@@H](CCCCN)C(=O)N[C@@H](Cc1c[nH]c2ccccc12)C(=O)N[C@@H](CCCCN)C(=O)N[C@@H](CCCCN)C(=O)O` [Peptide 9] (H-WIKIWK[dP]GIKKWKK-OH; N-terminus and C-terminus assumed): in the assay with E. coli ATCC25922, the “MIC, Control” value came out at 16 µM; the “MIC, FeCl3” value came out at 16 µM; the “MIC, MgCl2” value turned out to be 64 µM; the “MIC, KCl” value was 32 µM. In addition, in the assay with E. coli ATCC25922, the “MIC, NaCl” value is above 64 µM; the “MIC, PH=2” value is 32 µM; the “MIC, PH=4” value came out at 32 µM; the “MIC, PH=10” value is 16 µM. For the same compound, in the assay with E. coli ATCC25922, the “MIC, PH=12” value was found to be 16 µM. For the same compound, in the assay on Beneficial strains, the “GM Beneficial strains” value came to 161.270 µM. In addition, in the assay with E. coli, the “TI Beneficial strains (targeting index)” value came out at 0.111; the “TI Pathogenic strains (targeting index)” value was 0.088; the “SI E. coli (selectivity index)” value came to 14.255; the “TI All (TIall, targeting index)” value turned out to be 0.100. The “GM E. coli” value in the assay with E. coli turned out to be 17.959 µM.
In the case of `CC[C@H](C)[C@H](NC(=O)CNC(=O)[C@H]1CCCN1C(=O)[C@H](CCCCN)NC(=O)[C@H](Cc1c[nH]c2ccccc12)NC(=O)[C@@H](NC(=O)[C@H](CCCCN)NC(=O)[C@H](CCCCN)NC(=O)[C@@H](N)Cc1c[nH]c2ccccc12)[C@@H](C)CC)C(=O)N[C@@H](CCCCN)C(=O)N[C@@H](CCCCN)C(=O)N[C@@H](Cc1c[nH]c2ccccc12)C(=O)N[C@@H](CCCCN)C(=O)N[C@@H](CCCCN)C(=O)O` [Peptide 8] (H-WKKIWK[dP]GIKKWKK-OH; N-terminus and C-terminus assumed), in the assay on E. coli ATCC25922, the “MIC, Control” value is 16 µM; the “MIC, FeCl3” value is 16 µM; the “MIC, MgCl2” value came out at 32 µM; the “MIC, KCl” value turned out to be 16 µM. Moreover, in the assay on E. coli ATCC25922, the “MIC, NaCl” value was above 64 µM; the “MIC, PH=2” value is 64 µM; the “MIC, PH=4” value turned out to be 32 µM; the “MIC, PH=10” value is 16 µM. Besides, the “MIC, PH=12” value with E. coli ATCC25922 worked out at 64 µM. In addition, in the assay with Beneficial strains, the “GM Beneficial strains” value was 256.000 µM. In the assay on E. coli, the “TI Beneficial strains (targeting index)” value was determined as 0.079; the “TI Pathogenic strains (targeting index)” value is recorded as 0.079; the “SI E. coli (selectivity index)” value is on record as 12.699; the “TI All (TIall, targeting index)” value was determined as 0.079. For the same compound, the “GM E. coli” value with E. coli turned out to be 20.159 µM.
As to `CC[C@H](C)[C@H](NC(=O)CN)C(=O)NCC(=O)N[C@@H](C)C(=O)N[C@H](C(=O)N[C@@H](CC(C)C)C(=O)N[C@@H](CCCCN)C(=O)N[C@H](C(=O)N[C@@H](CC(C)C)C(=O)N[C@H](C(=O)N[C@H](C(=O)NCC(=O)N[C@@H](CC(C)C)C(=O)N1CCC[C@H]1C(=O)N[C@@H](C)C(=O)N[C@@H](CC(C)C)C(=O)N[C@H](C(=O)N[C@@H](CO)C(=O)N[C@@H](Cc1c[nH]c2ccccc12)C(=O)N[C@H](C(=O)N[C@@H](CCCCN)C(=O)N[C@@H](CCCNC(=N)N)C(=O)N[C@@H](CCCCN)C(=O)N[C@@H](CCCNC(=N)N)C(=O)N[C@@H](CCC(N)=O)C(=O)N[C@@H](CCC(N)=O)C(N)=O)[C@@H](C)CC)[C@@H](C)CC)[C@@H](C)O)[C@@H](C)O)C(C)C)C(C)C` [MLT, Melittin, reference compound], the “GM Beneficial strains” value in the assay on Beneficial strains stood at 2.245 µM. Also, in the assay with E. coli, the “TI Beneficial strains (targeting index)” value was determined as 1.122; the “TI Pathogenic strains (targeting index)” value turned out to be 0.630; the “SI E. coli (selectivity index)” value was 0.794; the “TI All (TIall, targeting index)” value worked out at 0.876. In addition, the “GM E. coli” value in the assay with E. coli came out at 2.520 µM.
